Experiments:
IL-2-stimulated PBMC = experiment: IL-2-induced PBMC proliferation (BrdU Cell Proliferation Assay); type: cell-based, human; conditions: IL-2 5 ng/ml; Cefazolin 20, 100, 300 μM; 4 days; repeated three times, different donors
Protocol: (§4) All experiments were carried out on peripheral blood mononuclear cells (PBMC) from healthy donors. The cells were isolated under the standard protocol regarding density gradient centrifugation. According to the general protocol, 6 ml of blood was layered on 3 ml of Lymphoprep (Axis-shield, Norway), then centrifuged at 800×g for 15 min. The layer of PBMC was collected, the cells were washed twice with phosphate buffered saline (PBS) (BIOMED-LUBLIN, Poland) and suspended in medium RPMI1640 (Gibco, Great Britain), containing 10 mM HEPES (Sigma, USA), 10% fetal calf serum (BIOMED-LUBLIN, Poland) and antibiotic (streptomycin sulfate, penicillin G sodium; amphotericin B, PAA, Austria). In all the in vitro experiments non-stimulated PBMC were used as the control. The inhibition efficacy was assessed in relation to the cells stimulated with IL-15 or IL-2. PBMC proliferation was evaluated using commercially available BrdU Cell Proliferation Assay (Calbiochem, Merck, Germany). PBMC were seeded in a 96-well plate (25×10^3 cells in 200 μL of the culture medium/well). The next day the cells were treated with the tested compound at final concentrations: 20 μM, 100 μM and 300 μM. […] The results are expressed as the percentage change of proliferating cells with regard to the control cells stimulated with IL-15 or IL-2. […]

[1] = tested on: IL-2-induced IL-17 synthesis in PBMC; experiment: IL-2-induced IL-17 synthesis in PBMC (ELISA); type: cell-based, human; conditions: IL-2 5 ng/ml; 48 h; Cefazolin 300 μM
Protocol: (§1) All experiments were carried out on peripheral blood mononuclear cells (PBMC) from healthy donors. The cells were isolated under the standard protocol regarding density gradient centrifugation. According to the general protocol, 6 ml of blood was layered on 3 ml of Lymphoprep (Axis-shield, Norway), then centrifuged at 800×g for 15 min. The layer of PBMC was collected, the cells were washed twice with phosphate buffered saline (PBS) (BIOMED-LUBLIN, Poland) and suspended in medium RPMI1640 (Gibco, Great Britain), containing 10 mM HEPES (Sigma, USA), 10% fetal calf serum (BIOMED-LUBLIN, Poland) and antibiotic (streptomycin sulfate, penicillin G sodium; amphotericin B, PAA, Austria).
(§2) In all the in vitro experiments non-stimulated PBMC were used as the control. The inhibition efficacy was assessed in relation to the cells stimulated with IL-15 or IL-2. […]
(§3) PBMC were seeded in a 24-well plate (2×10^6 cells in 1 ml of the culture medium/well), treated with the inhibitor, after 30 min. stimulated with IL-15 (5 ng/ml) or IL-2 (5 ng/ml). After 48 hr incubation, the culture medium was collected from each well to determine the IL-17 concentration, cells were harvested and lysed, and the concentration of total protein was measured in cell lysates. The obtained values of IL-17 concentration were calculated for 1 mg of protein. […]

[2] = tested on: IL-2-induced TNF-α synthesis in PBMC; experiment: IL-2-induced TNF-α synthesis in PBMC (ELISA); type: cell-based, human; conditions: IL-2 5 ng/ml; 48 h; Cefazolin 300 μM; vs IL-2 stimulated control cells
Protocol: as §1, §2
as §3, with “The PBMC” for “PBMC”, “tested compound and” for “inhibitor,”, “min” for “min.”, “h” for “hr”, “TNF-α” for “IL-17”

[3] = tested on: IL-15-induced TNF-α synthesis in PBMC; experiment: IL-15-induced TNF-α synthesis in PBMC (ELISA); type: cell-based, human; conditions: IL-15 5 ng/ml; 48 h; Cefazolin 20-1000 μM; vs IL-15 stimulated control cells
Protocol: as §1, §2
as §3, with “The PBMC” for “PBMC”, “tested compound and” for “inhibitor,”, “min” for “min.”, “h” for “hr”, “TNF-α” for “IL-17”

[4] = tested on: IL-15-induced IL-17 synthesis in PBMC; experiment: IL-15-induced IL-17 synthesis in PBMC (ELISA); type: cell-based, human
Protocol: as §1, §2, §3

IL-15-stimulated PBMC = experiment: IL-15-induced PBMC proliferation (BrdU Cell Proliferation Assay); type: cell-based, human; conditions: IL-15 5 ng/ml; Cefazolin 20, 100, 300 μM; 4 days; repeated three times, different donors
Protocol: as §4

Gram-positive bacteria = conditions: cited from earlier work
[5] = cited from earlier work

Structure (SMILES): Cc1nnc(SCC2=C(C(=O)O)N3C(=O)[C@@H](NC(=O)Cn4cnnn4)[C@H]3SC2)s1 [Cefazolin]
- effect on IL-2-induced PBMC proliferation (IL-2-stimulated PBMC): inhibits
- effect on IL-2-induced IL-17 synthesis in PBMC [1]: Strong inhibitory effect
- cytotoxic or apoptotic activity on PBMC (PBMC): does not trigger the apoptotic pathway
- effect on IL-2-induced TNF-α synthesis in PBMC [2]: significantly reduces
- effect on IL-15-induced TNF-α synthesis in PBMC [3]: significantly reduces
- effect on IL-15-induced IL-17 synthesis in PBMC ([4]; IL-15 5 ng/ml, 48 h, Cefazolin 20-1000 μM, vs IL-15 stimulated control cells): significantly reduces
- effect of increasing Cefazolin concentration on IL-15-induced IL-17 synthesis ([4]; increase of concentration from 200 μM to 1000 μM): does not affect IL-17 synthesis to any great extent
- effect on IL-15-induced PBMC proliferation (IL-15-stimulated PBMC): inhibits
- bactericidal activity against Gram-positive bacteria (Gram-positive bacteria): Potent bactericidal activity
- crossing of the blood brain barrier ([5]; in vivo): does not cross the blood brain barrier
- excreted in urine of unchanged structure, share of the excreted amount ([5]; urine, glomerular filtration): 90%

Reference: US11452728B2, “7-aminocephalosporanic acid derivative as inhibitor of IL15 and IL-2 activity” (Warszawski Uniwersytet Medyczny, priority 2013, dated 2022)
